For test [1], the system named is Molt-4 cells. The test can be described thus: AlamarBlue (resazurin) viability assay. In kind it is cell-based. The procedure: Dose-dependent AlamarBlue® (resazurin) viability assays were performed on Molt-4 cells treated with different concentrations of three phytocannabinoids (CBD, CBDV and CF1) at different ratios, as shown in Table 2.
In order to determine the effect of cannabinoids on the reduction of the survival rate of cancer cells, dose-dependent AlamarBlue® (resazurin) viability assays were then performed on Molt-4 cells treated with single cannabinoids or a combination of two cannabinoids at the same concentration as that of the three phytocannabinoids present in the whole extract, as shown in Table 3. Particularly, CF1 alone, or in combination with one additional cannabinoid was examined to determine its capability to induce apoptosis of cancer cells.
For orientation: The colour change of resazurin is a common sign of viable cells or microbes.

Test [2] concerns DBTRG-05MG cells. Description: Hoechst / Propidium Iodide cell death imaging. Type of test: cell-based. To be noted: 24 hours; for % of cell death, effect of adding the cannabinoid to CBD: DBTRG-05MG, purified cannabinoids at content of extract 2, 4 and 8 μg/ml, compared with CBD alone. The procedure:
The effects of cannabinoids on the survival of tolerant glioblastoma (GBM) cancer cells harboring a NOTCH 4 mutation were examined.
DBTRG-05MG cells were cultured in 96 well plate (1×10^5 cells/well) until confluency and treated with DMSO as control, pure cannabidiol (CBD), and extracts CAN12 and CAN26 with increasing concentrations from 1 to 4 μg/ml (FIG. 2A).
In another experiment, cells were cultured in 96 well plate (1×10^5 cells/well) until confluency and treated for 24 hours with three molecules (CBD, CBDV and CF1) as compared to the whole extract. The treatments were performed using three extract concentrations: 2, 4 and 8 μg/ml (FIG. 2B). After 24 hours, cells were stained with Hoechst and Propidium Iodide (PI) and imaged by IXM micro system (Molecular Devices) in 10× magnification. Live and dead cells were analyzed by MetaXpress® software (Molecular Devices) and presented as percentages of cell death from total cells. The purified phytocannabinoids were diluted to contain the same content as in the extract, then were provided according to the extract concentrations.

SMILES strings stand for the structures.

Regarding `CCCCCc1cc(O)c(C2C=C(C)CCC2C(C)(C)O)c(O)c1` [CF1, 1,3-benzenediol,2-[(1R,6R)-6-(1-hydroxy-1-methylethyl)-3-methyl-2cyclohexen-1-yl]-5-pentyl], the “inducing cancer cells death” value in test [1] (Molt-4, CF1 alone as a single cannabinoid (1a, 0.62 ng/μl)) is “showed efficacy”. Also, the “potency among the three cannabinoids (CBD, CBDV, CF1)” value in test [1] (Molt-4, Table 3 compositions) is recorded as “most potent”. Also, the “% of cell death, effect of adding the cannabinoid to CBD” value in test [2] was “improved the activity of CBD alone”. Regarding `C=C(C)[C@@H]1CCC(C)=C[C@H]1c1c(O)cc(CCCCC)cc1O` [CBD, cannabidiol], the “% of cell death” value in test [2] (GBM DBTRG-05MG cells harboring a NOTCH 4 mutation, vs DMSO) is reported as “increased”. As to `C=C(C)[C@@H]1CCC(C)=C[C@H]1c1c(O)cc(CCC)cc1O` [CBDV, cannabidivarin], the “% of cell death, effect of adding the cannabinoid to CBD” value in test [2] was “improved the activity of CBD alone”.

The values above are taken from patent publication US12714719B2, “Cannabinoids, pharmaceutical compositions comprising same and uses thereof” (TECHNION RESEARCH AND DEVELOPMENT FOUNDATION LIMITED, priority 2020, dated 2026).
